Data taken from PubChem BioAssay (NCI).
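Briefly, cells in 96-well plates were exposed to five compound concentrations for 48 h, and endpoints were estimated by linear interpolation. The concentration for 50% growth inhibition is given as GI50. TGI: total growth inhibition.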

Legend:
Assay in all cases: NCI-60 cell line screen, 48 h
[1] = test system: DMS 114 small cell lung
[2] = test system: LOX IMVI melanoma
[3] = test system: M19-MEL melanoma
[4] = test system: MALME-3M melanoma
[5] = test system: OVCAR-5 ovarian
[6] = test system: RXF 393 renal
[7] = test system: RXF-631 renal
[8] = test system: SF-268 CNS
[9] = test system: SK-MEL-28 melanoma
[10] = test system: HOP-18 NSCLC
[11] = test system: HS 578T breast

SMILES	TGI [1]	TGI [2]	TGI [3]	TGI [4]	TGI [5]	TGI [6]	TGI [7]	TGI [8]	TGI [9]	TGI [10]	GI50 [11]	TGI [11]	GI50 [5]	GI50 [9]
NC1N=Nc2ccccc21 (stereo not drawn)	> 100 µM	> 100 µM	> 100 µM	> 100 µM	> 100 µM	> 100 µM	> 100 µM	> 100 µM	> 100 µM					
CCc1ccccc1NC(=O)C(=O)C(C#N)c1ccccc1Cl (stereo not drawn)	> 100 µM	10.9 µM	> 100 µM	> 100 µM	> 100 µM	> 100 µM	> 100 µM	> 100 µM	> 100 µM	> 100 µM				
Cc1cc(=O)[nH]c(CNC(=O)c2ccc3ccccc3c2)n1	> 100 µM	> 100 µM	> 100 µM	> 100 µM	> 100 µM	> 100 µM	> 100 µM	> 100 µM	> 100 µM	> 100 µM				
c1ccc2c(c1)SC(=C1Sc3ccccc3S1)S2	> 100 µM	> 100 µM	> 100 µM	> 100 µM		> 100 µM	> 100 µM	> 100 µM	> 100 µM	> 100 µM				
CN1C(=O)CC2(C)c3cc(O)cc(Br)c3N(C)C12 (stereo not drawn)	> 100 µM	> 100 µM	> 100 µM	> 100 µM	> 100 µM	> 100 µM		> 100 µM	> 100 µM	> 100 µM				
O=C(CCC(=O)Nc1ccc(Cl)c(Cl)c1)CC(=O)c1ccc2ccccc2c1	> 100 µM	> 100 µM	> 100 µM	> 100 µM	> 100 µM	> 100 µM	> 100 µM	> 100 µM	> 100 µM	> 100 µM				
O=C(Cc1ccccc1[N+](=O)[O-])C(CO)c1ccccc1[N+](=O)[O-] (stereo not drawn)	> 100 µM	> 100 µM	> 100 µM	> 100 µM	> 100 µM	> 100 µM		> 100 µM	> 100 µM	> 100 µM				
CC1CCC2C(C)C(=O)OC3OC4(C)CCC1C32OO4 (stereo not drawn)	> 100 µM	> 100 µM	> 100 µM	> 100 µM	> 100 µM	> 100 µM	> 100 µM	> 100 µM	> 100 µM	> 100 µM	> 100 µM	> 100 µM	> 100 µM	> 100 µM
COc1cccc(C=O)c1C(=O)c1cc(O)ccc1O	> 48.2 µM	> 74 µM	79.8 µM	37.5 µM	> 100 µM	32.2 µM		> 55.4 µM	> 61.4 µM	76.5 µM				
COC(=O)C1CSC(c2csc(CCN)n2)=N1 (stereo not drawn)	> 100 µM	> 100 µM	> 100 µM	> 100 µM	> 100 µM	> 100 µM			> 100 µM	> 100 µM				
OCC1OC2c3ccccc3COC2C1OCc1ccccc1 (stereo not drawn)	> 100 µM		> 100 µM	> 100 µM	> 100 µM	> 100 µM	> 100 µM		> 100 µM	> 100 µM				
O=C(NC(=Nc1ccccc1)SCSC(=Nc1ccccc1)NC(=O)c1ccco1)c1ccco1	> 100 µM	> 100 µM	> 100 µM	> 100 µM	> 100 µM	55 µM	> 100 µM	> 100 µM	> 100 µM					
COC(=O)[C@H]1COC(=S)N1C(=O)[C@@H](C)[C@H](O)C(C)C	> 100 µM	> 100 µM	> 100 µM	> 100 µM	> 100 µM	> 100 µM	> 100 µM	> 100 µM	> 100 µM	> 100 µM				
C/C(CCn1[nH]c(=O)ccc1=O)=N\NC(=O)C(N)=O	> 100 µM	> 100 µM	> 100 µM	> 100 µM	> 100 µM	> 100 µM		> 100 µM	> 100 µM	> 100 µM				
Nc1nc(N)c(CCCCc2ccccc2)c(C=O)n1	34.4 µM	32.8 µM	29.5 µM	36.3 µM	> 100 µM		> 100 µM	43.3 µM	32.3 µM	89.2 µM				
CC1(C)NC(=O)N(CCCCCCN2C(=O)NC(C)(C)C2=O)C1=O	> 100 µM	> 100 µM	> 100 µM	> 100 µM	> 100 µM	> 100 µM		> 100 µM	> 100 µM	> 100 µM				
COC(=O)Cc1c([C@@]2(C)CCCC(C)(C)C2)ccc2c1C(=O)OC2	20.4 µM	24.2 µM	69.6 µM	38 µM		27.9 µM	29.4 µM		34.9 µM	47.1 µM				
O=[N+]([O-])c1cc(-c2nc(=S)[nH][nH]2)ccc1O	86.8 µM	> 100 µM	> 100 µM	> 100 µM	> 100 µM	> 100 µM	> 100 µM	> 100 µM	> 100 µM					
